Consider 1 molecule from patent publication US20230141887A1, “CRYSTAL FORM OF DIAZASPIROPYRAN COMPOUND” (MEDSHINE DISCOVERY INC., priority 2020, published 2023).

Each structure is given as a SMILES string. Where a chain is given by its changes, count along the chain named.

One assay concerns the target T1, FLT3(R834Q) (Homo sapiens, UniProt P36888, R834Q).
T1 sequence (P36888 27-993 R834Q): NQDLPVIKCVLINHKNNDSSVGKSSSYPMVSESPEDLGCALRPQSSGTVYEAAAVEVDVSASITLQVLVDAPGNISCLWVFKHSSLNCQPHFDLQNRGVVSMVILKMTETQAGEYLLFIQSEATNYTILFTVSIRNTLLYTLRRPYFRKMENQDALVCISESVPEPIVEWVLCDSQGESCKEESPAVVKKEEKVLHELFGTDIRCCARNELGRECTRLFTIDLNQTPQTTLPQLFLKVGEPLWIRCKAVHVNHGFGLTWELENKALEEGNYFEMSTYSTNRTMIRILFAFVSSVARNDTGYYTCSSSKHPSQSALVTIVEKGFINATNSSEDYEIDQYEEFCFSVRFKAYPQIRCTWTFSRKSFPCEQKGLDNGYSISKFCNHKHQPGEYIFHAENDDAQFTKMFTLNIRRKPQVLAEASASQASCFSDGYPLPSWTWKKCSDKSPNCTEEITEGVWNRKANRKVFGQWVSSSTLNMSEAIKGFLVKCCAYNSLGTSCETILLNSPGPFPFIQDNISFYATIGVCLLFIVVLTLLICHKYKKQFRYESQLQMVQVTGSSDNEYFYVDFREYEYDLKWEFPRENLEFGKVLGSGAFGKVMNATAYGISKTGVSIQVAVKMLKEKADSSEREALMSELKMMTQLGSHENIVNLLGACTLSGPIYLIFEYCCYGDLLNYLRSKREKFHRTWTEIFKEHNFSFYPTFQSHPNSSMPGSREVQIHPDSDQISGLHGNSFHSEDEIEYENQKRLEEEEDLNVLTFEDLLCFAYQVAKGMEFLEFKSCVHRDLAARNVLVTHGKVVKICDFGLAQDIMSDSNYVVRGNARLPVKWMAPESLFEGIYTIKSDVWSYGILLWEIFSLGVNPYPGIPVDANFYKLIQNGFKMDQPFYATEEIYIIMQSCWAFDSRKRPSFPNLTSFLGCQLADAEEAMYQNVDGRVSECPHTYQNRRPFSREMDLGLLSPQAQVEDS
Type of assay: binding. Here is the method:
(§1) The assay was carried out using KINOMEscan™ technology. The assay compounds were stored in 100% DMSO. The assay was carried out by means of 3-fold dilution and 11-point fitting. All compounds used for Kd determination were dispersed by ultrasound, then directly diluted and tested. All reactions were carried out in a 384-well polypropylene plate. Each portion has a final volume of 0.02 ml. The plate was incubated with shaking at room temperature for 1 hour, and then processed. The kinase concentration in the eluent was finally determined by qPCR method. Kd was obtained by fitting.

A further assay deals with T2, FLT3(K663Q) (Homo sapiens, UniProt P36888, K663Q).
T2 sequence (P36888 27-993 K663Q): T1 sequence (P36888 27-993 R834Q) with K637Q, Q808R
The assay is classed as binding. The protocol: as §1

Usually Kd stands for the constant that tells how readily two partners part at equilibrium. Read a low Kd as tighter binding. For the molecule `CCc1nc(C(N)=O)c(Nc2ccc(N3CCC4(CCN(C)CC4)CC3)c(C)c2)nc1NC1CCOCC1.O=C(O)C(F)(F)F`, the Kd on FLT3(R834Q) stood at 31 nM; at FLT3(K663Q) (FLT3(K663Q)), 10 nM. For the same molecule, the “activity higher than that of the known compound B” value on FLT3(K663Q) (FLT3 (K663Q), ratio of Kd versus compound B) worked out at 5.9 times.
